Columns and labels:
Assay in all cases: MTT cell proliferation assay
Assay type in all cases: cell-based
HPAF-II cells = conditions: Homo sapiens, 72-hour MTT
Outline: (§1)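 72-h MTT proliferation; 5,000-10,000 cells/well, overnight attachment; cpd 1 nM–30 μM, 8 concs; MTT ~4 h, formazan solubilized, OD490; % inhibition vs negative control, mean±SE, usually duplicate.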

MV-4-11 cells = conditions: Homo sapiens, MV4-11, 72-hour MTT
Outline: as §1

NCI-H69 cells = conditions: Homo sapiens, 72-hour MTT
Outline: as §1

MOLT4 cells = conditions: Homo sapiens, MOLT-4, 72-hour MTT
Outline: as §1

SW-48 cells = conditions: Homo sapiens, SW48, 72-hour MTT
Outline: as §1

NCI-H28 cells = conditions: Homo sapiens, 72-hour MTT
Outline: as §1

Panc-1 cells = conditions: Homo sapiens, 72-hour MTT
Outline: as §1

NCI-H187 cells = conditions: Homo sapiens, 72-hour MTT
Outline: as §1

THP1 cells = conditions: Homo sapiens, THP-1, 72-hour MTT
Outline: as §1

BL-40 cells = conditions: 72-hour MTT
Outline: as §1

SW-1116 cells = conditions: Homo sapiens, 72-hour MTT
Outline: as §1

MDA-MB-415 cells = conditions: Homo sapiens, 72-hour MTT
Outline: as §1

Jurkat cells = conditions: Homo sapiens, 72-hour MTT
Outline: as §1

IMR-90 cells = conditions: Homo sapiens, 72-hour MTT
Outline: as §1

SW-1417 cells = conditions: Homo sapiens, SW1417, 72-hour MTT
Outline: as §1

SNU-398 cells = conditions: Homo sapiens, 72-hour MTT
Outline: as §1

Hs578T cells = conditions: Homo sapiens, Hs-578T, 72-hour MTT
Outline: as §1

AU-565 cells = conditions: Homo sapiens, AU565, 72-hour MTT
Outline: as §1

MCF7 cells = conditions: Homo sapiens, 72-hour MTT
Outline: as §1

MSTO-211H cells = conditions: Homo sapiens, 72-hour MTT
Outline: as §1

HH cells = conditions: Homo sapiens, 72-hour MTT
Outline: as §1

CAPAN-1 cells = conditions: Homo sapiens, 72-hour MTT
Outline: as §1

LS-180 cells = conditions: Homo sapiens, LS180, 72-hour MTT
Outline: as §1

Colo-201 cells = conditions: Homo sapiens, 72-hour MTT
Outline: as §1

CaOV3 cells = conditions: Homo sapiens, Caov-3, 72-hour MTT
Outline: as §1

NCI-H929 cells = conditions: Homo sapiens, 72-hour MTT
Outline: as §1

HCC-1143 cells = conditions: Homo sapiens, HCC1143, 72-hour MTT
Outline: as §1

SKOV3 cells = conditions: Homo sapiens, SK-OV-3, 72-hour MTT
Outline: as §1

TFK-1 cells = conditions: 72-hour MTT
Outline: as §1

CAMA-1 cells = conditions: Homo sapiens, 72-hour MTT
Outline: as §1

Raji cells = conditions: Homo sapiens, 72-hour MTT
Outline: as §1

NCI-H820 cells = conditions: 72-hour MTT
Outline: as §1

Calu-6 cells = conditions: Homo sapiens, 72-hour MTT
Outline: as §1

KG-1 cells = conditions: Homo sapiens, 72-hour MTT
Outline: as §1

HeLa cells = conditions: Homo sapiens, 72-hour MTT
Outline: as §1

SW-620 cells = conditions: Homo sapiens, 72-hour MTT
Outline: as §1

DB cells = conditions: Homo sapiens, 72-hour MTT
Outline: as §1

PANC-10.05 cells = conditions: Homo sapiens, Panc1005, 72-hour MTT
Outline: as §1

MiaPaCa-2 cells = conditions: Homo sapiens, MIA PaCa-2, 72-hour MTT
Outline: as §1

NCI-H889 cells = conditions: Homo sapiens, 72-hour MTT
Outline: as §1

Nc1ccc(/C=C/C(=O)NCc2cc3cc(-c4ccc(C(=O)N5CCC(F)(F)CC5)cn4)cc(C(F)(F)F)c3o2)cn1 [Compound 585, (E)-3-(6-aminopyridin-3-yl)-N-((5-(5-(4,4-difluoropiperidine-1-carbonyl)pyridin-2-yl)-7-(trifluoromethyl)benzofuran-2-yl)methyl)acrylamide]
IC50 (HPAF-II cells): 550 nM
IC50 (MV-4-11 cells): 90 nM
IC50 (NCI-H69 cells): 80 nM
IC50 (MOLT4 cells): 40 nM
IC50 (SW-48 cells): 170 nM
IC50 (NCI-H28 cells): 200 nM
IC50 (Panc-1 cells): 840 nM
IC50 (NCI-H187 cells): 70 nM
IC50 (THP1 cells): 20 nM
IC50 (BL-40 cells): 300 nM
IC50 (SW-1116 cells): 970 nM
IC50 (MDA-MB-415 cells): 1020 nM
IC50 (Jurkat cells): 40 nM
IC50 (IMR-90 cells): 4000 nM
IC50 (SW-1417 cells): 1270 nM
IC50 (SNU-398 cells): 4420 nM
IC50 (Hs578T cells): 250 nM
IC50 (AU-565 cells): 140 nM
IC50 (MCF7 cells): 700 nM
IC50 (MSTO-211H cells): 250 nM
IC50 (HH cells): 90 nM
IC50 (CAPAN-1 cells): 90 nM
IC50 (LS-180 cells): 150 nM
IC50 (Colo-201 cells): 560 nM
IC50 (CaOV3 cells): 2220 nM
IC50 (NCI-H929 cells): 930 nM
IC50 (HCC-1143 cells): 210 nM
IC50 (SKOV3 cells): > 10000 nM
IC50 (TFK-1 cells): 1030 nM
IC50 (CAMA-1 cells): 1060 nM
IC50 (Raji cells): 90 nM
IC50 (NCI-H820 cells): 2840 nM
IC50 (Calu-6 cells): 350 nM
IC50 (KG-1 cells): 150 nM
IC50 (HeLa cells): 60 nM
IC50 (SW-620 cells): 140 nM
IC50 (DB cells): 290 nM
IC50 (PANC-10.05 cells): 870 nM
IC50 (MiaPaCa-2 cells): 880 nM
IC50 (NCI-H889 cells): 60 nM

Reference: patent US12331040B2 (Karyopharm Therapeutics Inc., priority 2013, dated 2025)
